Measurements published in ChEMBL document CHEMBL3727348, “3-(aryl or heteroaryl) methyleneindolin-2-one derivatives as inhibitors of cancer stem cell pathway kinases for the treatment of cancer” (2014).
Active and inactive are the calls of the source. The calls are words filed in the database; no cut-off is given here.

What was measured:
[1] = target: Ribosomal protein S6 kinase (Homo sapiens) (UniProt P51812+Q9UBS0+O75676+Q15349+O75582+P23443+Q9UK32+Q15418); test: Inhibition of RPS6 kinase phosphorylation in cells (unknown origin) incubated for 6 hrs by Western blot based cell based method
[2] = target: Mitogen-activated protein kinase; ERK1/ERK2 (Homo sapiens) (UniProt P27361+P28482); test: Inhibition of ERK phosphorylation in cells (unknown origin) incubated for 6 hrs by Western blot based cell based method
FaDu [3] = test: Cytotoxic activity against human FADU cancer stem cells incubated for 72 hrs by Cell-titer-Glo luminescence assay; assay type: functional, cell-based
FaDu [4] = test: Cytotoxic activity against human FADU bulk cells incubated for 72 hrs by Cell-titer-Glo luminescence assay; assay type: functional, cell-based
A549 = test: Cytotoxic activity against human A549 bulk cells incubated for 72 hrs by Cell-titer-Glo luminescence assay; assay type: functional, cell-based; conditions: A549, 72 h

Mitogen-activated protein kinase; ERK1/ERK2 (Homo sapiens), sequence (P27361 whole entry, looked up): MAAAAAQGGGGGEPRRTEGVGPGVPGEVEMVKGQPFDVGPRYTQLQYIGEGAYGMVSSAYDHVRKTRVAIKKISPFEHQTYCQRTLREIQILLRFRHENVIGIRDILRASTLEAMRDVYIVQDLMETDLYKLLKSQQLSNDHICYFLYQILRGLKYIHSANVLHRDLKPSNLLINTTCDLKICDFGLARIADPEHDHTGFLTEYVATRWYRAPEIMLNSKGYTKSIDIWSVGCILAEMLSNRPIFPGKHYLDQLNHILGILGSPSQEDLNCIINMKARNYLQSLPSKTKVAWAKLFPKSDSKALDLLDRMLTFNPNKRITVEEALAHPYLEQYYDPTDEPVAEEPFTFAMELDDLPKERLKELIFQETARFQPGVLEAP
Mitogen-activated protein kinase; ERK1/ERK2 (Homo sapiens), sequence (P28482 whole entry, looked up): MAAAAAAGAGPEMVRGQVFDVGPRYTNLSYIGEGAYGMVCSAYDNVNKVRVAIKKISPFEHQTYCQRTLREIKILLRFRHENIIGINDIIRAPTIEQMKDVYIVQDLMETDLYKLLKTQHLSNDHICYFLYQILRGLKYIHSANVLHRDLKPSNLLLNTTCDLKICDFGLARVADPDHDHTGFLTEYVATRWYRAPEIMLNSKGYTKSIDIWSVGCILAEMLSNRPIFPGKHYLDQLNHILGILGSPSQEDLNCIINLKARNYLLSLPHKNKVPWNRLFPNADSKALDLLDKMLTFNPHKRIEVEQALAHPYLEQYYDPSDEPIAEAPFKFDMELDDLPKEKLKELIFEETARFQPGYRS

SMILES	inhibition [1]	inhibition [2]	IC50 (FaDu [3]) [µM]	IC50 (FaDu [4]) [µM]	IC50 (A549) [µM]
Cc1[nH]c(/C=C2\C(=O)Nc3ccc(-c4csc(-c5ccccc5)n4)cc32)c(C)c1C(=O)NCCO	Active				
CCOC(=O)CCc1ccc(-c2nc(-c3ccc4c(c3)/C(=C/c3[nH]c(C)c(C(=O)NCCN(CC)CC)c3C)C(=O)N4)cs2)cc1		Active	2.52		
CCNC(=O)c1c(C)[nH]c(/C=C2\C(=O)Nc3ccc(-c4csc(-c5ccccc5)n4)cc32)c1C	Active	Active			
Cc1cc(C)c(/C=C2\C(=O)Nc3ccc(-c4ccc(C=O)cc4)cc32)[nH]1		Active		26.8	29.2
